Where a name gives a salt, the structure may show the parent alone.
Columns and labels:
[1] = Aqueous solubility (solubility in water); type: physicochemical
[2] = as stated in U.S. Pat. No. 5,312,925; cited from earlier work

| SOLUBILITY IN WATER ([1]; aqueous solubility of ziprasidone mesylate polymorphs, water) | aqueous solubility (in words) ([1]; qualitative statement, dihydrates compared with ziprasidone hydrochloride monohydrate) | Structure (SMILES) | hygroscopic stability (in words) [2] |
| --- | --- | --- | --- |
| 1.10 mg/mL | – | O=C1Cc2cc(CCN3CCN(c4nsc5ccccc45)CC3)c(Cl)cc2N1 [dihydrate (needle), 5-[2-[4-(1,2-benzisothiazol-3-yl)-1-piperazinyl]ethyl]-6-chloro-1,3-dihydro-2H-indol-2-one Methanesulfonate Dihydrate (Needle Crystals)] | – |
| – | low aqueous solubility | O=C1Cc2cc(CCN3CCN(c4nsc5ccccc45)CC3)c(Cl)cc2N1 [ziprasidone hydrochloride monohydrate] | substantially hygroscopically stable |

Reference: patent publication US6245765A, “Mesylate dihydrate salts of 5-(2-(4-(1,2-benzisothiazol-3-yl)-1-piperazinyl)-ethyl)-6-chloro-1,3-dihyd ro-2(1H)-indol-2-one (=ziprasidone), its preparation and its use as dopamine D2 antagonist” (Pfizer Inc, priority 1999, dated 2001)
